Results: patent publication US6846500B1, “Oral care chewing gums and method of use” (Cadbury Adams USA LLC, priority 1999, dated 2005)

Test: Calcium precipitation on mixing CPP-ACP and sodium bicarbonate; calcium retained on filter by Atomic Absorption
Type: physicochemical, human
Description: The in vivo test was done to first determine the release of CPP-ACP. A five person panel chewed a gum containing 1% CPP-ACP. […] CPP-ACP and sodium bicarbonate at these concentration were incubated in a 30 ml pooled human saliva with moderate shaking at 37° C. for 3 minutes to test precipitation upon consumption of the gum and at 1 hour to show how longer contact time would precipitate calcium carbonate. The resultant pH of the incubation solution was approximately 7. The solution was filtered, the retentate was rinsed with deionized H2O to remove any soluble calcium and the result was analyzed for calcium content by Atomic Absorption analysis. As a control an aqueous solution of 30 g of a 0.3% CPP-ACP solution was pass through the filter paper.

- Calcium retained (30 g of saliva stored at 37° C. for 3 minutes): 1.700 mg
- Calcium retained (30 g of saliva stored at 37° C. for 3 minutes, listed as sodium bicarbonate): 1.7 mg
- Calcium retained (30 g of saliva stored at 37° C. for 1 hour): 1.600 mg
SMILES: O=C([O-])O.[Na+] [NaHCO3, sodium bicarbonate]
